Results: patent US20160102058A1, “FLUORO-PERHEXILINE COMPOUNDS AND THEIR THERAPEUTIC USE” (THE UNIVERSITY COURT OF THE UNIVERSITY OF ABERDEEN, priority 2013, published 2016)
Each block holds one compound with its values, some of them ahead of it.

Experiments:
[1] = cited from earlier work
[2] = Human liver microsomal (HLM) stability assay; type: in vitro ADME
Procedure: (§1) The metabolic stability of fluoroperhexiline derivatives was measured by determination of the rate of compound disappearance when incubated in the presence of both human and rat liver microsomes. Liver microsomes are prepared from the endoplasmic reticulum of hepatocytes and are the primary source of the most important enzymes (cytochrome P450) involved in drug metabolism. Study of drug stability in the presence of liver microsomes is accepted as a valuable model permitting rapid prediction of in vivo drug stability.
(§2) Human and rat liver microsomes were obtained from a commercial source. Test compounds (3 μM) were incubated with pooled liver microsomes (male and female). Samples were incubated for a 45 minute period and removed at 5 time points and test compounds were analysed by LC-MS/MS.
(§3) Microsomes (final protein concentration 0.5 mg/mL), 0.1 M phosphate buffer pH 7.4, and test compound (final concentration 3 μM; diluted from 10 mM stock solution to give a final DMSO concentration of 0.25%) were incubated at 37° C. prior to the addition of NADPH (final concentration 1 mM) to initiate the reaction. The final incubation volume was 25 μL. A control incubation was included for each compound tested, where 0.1 M phosphate buffer pH 7.4 was added instead of NADPH. The control compounds testosterone and 7-hydroxycoumarin were included in each experiment and all incubations were performed singularly for each compound.
(§4) Each compound was incubated for 0, 5, 15, 30, and 45 minutes. The control (minus NADPH) was incubated for 45 minutes only. The reactions were stopped by the addition of 50 μL methanol containing internal standard at the appropriate time points. The incubation plates were centrifuged at 2500 rpm for 20 minutes at 4° C. to precipitate the protein.
(§5) Following protein precipitation, the sample supernatants were combined in cassettes of up to 4 compounds and analysed using standard LC-MS/MS conditions.
(§6) From a plot of the natural logarithm of the peak area ratio (i.e., the ratio of compound peak area:internal standard peak area) against time, the gradient of the line was determined. Subsequently, half-life and intrinsic clearance were calculated using the equations below:
(§7) Eliminated Rate Constant (k)=(−Gradient).
(§8) Half-Life (t1/2) (min)=0.063/k.
(§9) Intrinsic Clearance (CLint) […]=(V×0.693)/t1/2. • wherein V=Incubation Volume (μL/mg microsomal protein).

CYP2D6 = target: T1, CYP2D6 (Homo sapiens, UniProt P10635); assay: Cytochrome P450 2D6 reaction phenotyping (Bactosomes); type: in vitro ADME
T1 construct: purchased Cypex Ltd; host or cells: bacterial membranes (Bactosomes)
Procedure: The stability of fluoroperhexiline derivatives towards CYP2D6-mediated metabolism was measured by determination of the rate of compound disappearance when incubated in the presence CYP2D6 recombinant isoform expression systems (Bactosomes™). The percentage of parent compound remaining at each time point (following correction for any loss in the incubations with the control bactosomes) is calculated. cDNA expressed human CYP450 enzyme preparations co-expressed with human NADPH cytochrome P450 reductase (Bactosomes™) are supplied by Cypex Ltd. Bactosomes™ are stored at −80° C. prior to use. […] Incubations are also performed using control bactosomes (no P450 enzymes present) to reveal any non-enzymatic degradation. The final incubation volume is 25 μL. A compound known to be metabolised specifically by CYP2D6 isoform is used as a control compound. Each compound is incubated singly for 0, 5, 15, 30 and 45 min with each isoform. The reactions are stopped by the addition of 50 μL methanol containing internal standard at the appropriate time points. The incubation plates are centrifuged at 2500 rpm for 20 min at 4° C. to precipitate the protein. Following protein precipitation, the sample supernatants are combined in cassettes of up to four compounds and analysed using Cyprotex generic LC-MS/MS conditions. The natural logarithm of the peak area ratio (which has been corrected for any loss in the incubations with the control bactosomes) is plotted against time and the gradient of the line determined. Elimination Rate Constant (k)=(−Gradient).

[3] = Rat liver microsomal (RLM) stability assay; type: in vitro ADME; conditions: both sexes, pH 7.4, rat liver microsomes, 3 μM test compound
Procedure: as §1, §2, §3, §4, §5, §6, §7, §8, §9

T1 sequence (P10635 whole entry): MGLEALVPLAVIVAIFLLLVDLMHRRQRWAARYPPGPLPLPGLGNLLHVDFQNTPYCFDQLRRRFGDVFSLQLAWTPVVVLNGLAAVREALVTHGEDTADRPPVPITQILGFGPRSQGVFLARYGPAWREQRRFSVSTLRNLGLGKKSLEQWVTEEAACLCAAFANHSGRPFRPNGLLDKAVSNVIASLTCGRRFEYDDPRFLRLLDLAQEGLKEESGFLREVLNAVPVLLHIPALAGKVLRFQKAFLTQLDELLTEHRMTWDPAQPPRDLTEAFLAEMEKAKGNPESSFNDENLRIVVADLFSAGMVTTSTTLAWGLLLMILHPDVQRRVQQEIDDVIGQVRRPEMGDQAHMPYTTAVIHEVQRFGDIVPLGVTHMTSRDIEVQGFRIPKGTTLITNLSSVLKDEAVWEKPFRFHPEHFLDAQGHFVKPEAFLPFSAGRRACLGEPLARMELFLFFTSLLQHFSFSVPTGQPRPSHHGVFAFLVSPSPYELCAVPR

SMILES: C1CCC(C(CC2CCCCN2)C2CCCCC2)CC1 (single isomer, unassigned; (+)) [(+)-perhexiline]
ratio of systemic exposure of (+)- to (−)-perhexiline, extensive metabolisers ([1]; EM): 1.5
ratio of systemic exposure of (+)- to (−)-perhexiline, poor metabolisers ([1]; PM): 2.3
plasma AUC, (+)-perhexiline relative to (−)-perhexiline ([1]; plasma): 2.5 fold

microsomal CLint at 3 μM ([2]; both sexes, pH 7.4, human liver microsomes, 3 μM test compound, read-out: CLint (μL/min/mg protein) HLM): 0.3 µL/min/mg
half-life at 3 μM ([2]; both sexes, pH 7.4, human liver microsomes, 3 μM test compound, read-out: T½ (min) HLM): 4210 min
half-life at 5 μM (CYP2D6; human, pH 7.4, recombinant CYP2D6 Bactosomes, 5 μM test compound, read-out: T½): 2.52 h
microsomal CLint at 3 μM ([3]; read-out: CLint (μL/min/mg protein) RLM): 0.8 µL/min/mg
half-life at 3 μM ([3]; read-out: T½ (min) RLM): 1650 min
SMILES: FC1(F)CCC(C(CC2CCCCN2)C2CCC(F)(F)CC2)CC1 (centres unmarked) [FPER-002, 2-(2,2-Bis(4,4-Difluorocyclohexyl)ethyl)piperidine]
metabolic stability compared with perhexiline (in words) ([2]; human and rat liver microsomes, versus perhexiline): substantial increase in metabolic stability
stability towards CYP2D6 compared with perhexiline (in words) (CYP2D6; versus perhexiline): substantial increase in stability towards CYP2D6

SMILES: O[C@H]1CC[C@@H](C(CC2CCCCN2)C2CCCCC2)CC1 (relative stereo) [cis-OH-perhexiline, cis-4-[1-(cyclohexyl)-2-(2-piperidinyl)ethyl]cyclohexanol]
plasma AUC of cis-OH-perhexiline after (−)-perhexiline compared with (+)-perhexiline ([1]; plasma): 28 fold
